Legend:
Type in all cases: physicochemical
[1] = Quantum yield of emission of lanthanide complexes in water / aqueous buffer; conditions: Tb complex
Description: A cyclohexyl analog of the metal chelator was prepared with methylenecarboxylate pendant groups and a sensitizing chromophore (carbostyril 124) appended to one of the central nitrogens (compound iii). The synthesis of compound iii was remarkably efficient (8 steps, 45% overall yield). Moreover, it can be scaled up and altered to prepare different derivatives, as evidenced by the incorporation of a single chromophore into the structure. Given its position in the molecule, the amide oxygen between the cyclohexyl nitrogen and the chromophore may coordinate to a bound Tb ion. This coordination in turn would allow for efficient sensitization of metal luminescence and result in a high quantum yield of emission. […] The quantum yield of compound iii exceeded 50% in water, making it among the most efficient luminescent Tb complexes known.
All of the complexes prepared show characteristic lanthanide emission spectra. UV-Vis absorption spectra closely matched those of previously reported carbostyril-sensitized complexes. […] The efficient emission and lack of bound waters support the hypothesis that inner substitution positions the sensitizer such that it remains coordinated to the metal center.

[2] = Metallation of chelator with Tb in buffer at 1:1 ratio, judged by green Tb luminescence; conditions: 1:1 ratio in buffer
Description: (§1) Complete metallation, as judged by formation of green Tb luminescence, occurred in less than 15 min. The resulting complex was then diluted to a final concentration of 5 nM in buffer solution that contained a much higher concentration (1 mM) of a competing chelator, ethylene diamine tetraacetic acid (EDTA). By observing the metal luminescence over time, the kinetic inertness of compound iii relative to that of other known chelators was assessed.

[3] = EDTA challenge assay of kinetic inertness (luminescence over time, 5 nM complex, 1 mM EDTA); conditions: for stability in EDTA solution: for 2 days
Description: FIG. 2 is a graph of the relative kinetic stability as measured by the luminescence signal intensity at ca. 545 nm (for Tb(III) complexes) or 620 nm (for Eu(III) complexes) for various dilute aqueous solutions (5 nM) of the indicated metal complexes in TBS buffer containing 1 mM EDTA.
FIG. 3 is a graph of the relative kinetic stability as measured by the luminescence signal intensity at ca. 545 nm (for Tb(III) complexes) or 620 nm (for Eu(III) complexes) for various dilute aqueous solutions (5 nM) of the indicated metal complexes in TBS buffer containing 1 mM EDTA.
The cyclic TTHA-based complexes Tb-12a and Eu-12b were still more than 40% in emissive after 48 h.
as §1

Molecule	quantum yield [1]	time to complete metallation [2]	time to equilibrate with the EDTA solution ([3]; Tb complex)	stability in EDTA solution [3]	time to complete dissociation from Tb(III) [3]
Cc1cc(=O)[nH]c2c(NC(=O)CN(CCN(CC(=O)O)[C@@H]3CCCC[C@H]3N(CC(=O)O)CC(=O)O)[C@H]3CCCC[C@@H]3N(CC(=O)O)CC(=O)O)cccc12 [Compound iii]	exceeded 50%	less than 15 min	2 to 3 h	remains essentially stable	
O=C(O)CN1CCN(CC(=O)O)CCN(CC(=O)O)CCN(CC(=O)O)CC1 [DOTA, 1,4,7,10-tetraazacyclododecane-1,4,7,10-tetraacetic acid]				remains essentially stable	
O=C(O)CN(CCN(CC(=O)O)CC(=O)O)CCN(CC(=O)O)CC(=O)O [DTPA, diethylamine triamine pentaacetic acid]					ca. 10 h
DOTAm				remains essentially stable	

Source: patent US10961197B2, “Metal chelators for imaging, therapeutics, and bioanalysis” (THE BOARD OF TRUSTEES OF THE UNIVERSITY OF ILLINOIS, priority 2016, dated 2021)
